Results taken from patent publication US20060040338A1, “Pharmacological profiling of drugs with cell-based assays” (Odyssey Thera, Inc., priority 2004, published 2006).
“Also recorded” adds a separate entry of the source.

Legend:
Format in all cases: cell-based, human
[1] = test system: phospho-Hsp27; assay: phospho-Hsp27 immunofluorescence high-content assay; conditions: HEK293T cells; for effect on EGF-induced Hsp27 phosphorylation: drug 90 min (PD98059 20 micromolar, SB203580 25 micromolar), 100 ng/ml hEGF during last 5 min; for Hsp27 phosphorylation (p38 pathway), agent alone: anisomycin 10 micrograms/ml 10 min, hEGF 100 ng/ml 5 min
Experimental: (§1) We assessed the effects of the above-mentioned compounds on the three pathways and used the results to construct pharmacological profiles for the agents. Specifically we assessed changes in the phosphorylation status of the pathway ‘sentinels’ by constructing high-content, immunofluorescence assays using phospho-specific antibodies targeted to the downstream proteins in the pathways of interest. Human cells (HEK293) were treated with drugs and the phosphorylation status of the three downstream proteins was assessed in the absence or presence of epidermal growth factor (EGF). Cells were then fixed and probed with antisera generated against the phosphorylated forms of CREB (S133), ERK1/2 (phospho T*EY*), or phospho Hsp27 (S78/S82). The ERK1/2 antibodies specifically recognize the MAPK/ERK1 and MAPK/ERK2 protein kinases only when they are phosphorylated on Threonine 202 and Tyrosine 204 in the activation loop. […] Changes in the level and sub-cellular localization of a phosphorylated protein following treatment with a drug would indicate a functional connection between the drug and the pathway of interest.
(§2) Details of the methods used are as follows. HEK293T cells were seeded in black-walled, poly-lysine coated 96-well plates (Greiner) at a density of 30,000/well. After 24 hours, cells in duplicate wells were treated with combinations of different drugs and stimulus as follows: (a) 2 micromolar isoproterenol or 1 micromolar forskolin for 15 min.; (b) 25 micromolar SB203580 or vehicle (DMSO) for 90 minutes and 10 micrograms/ml anisomycin added to the cells during the last 10 min.; (c) 20 microolar PD98059, 25 micromolar SB203580, 5 microM 17-AAG or vehicle alone for 90 min. (d) as for (c), but with 100 ng/ml hEGF added to the cells during the last 5 min of drug treatment. The drugs were purchased from Calbiochem and hEGF was from Roche. Four sets of cells treated as described were prepared. The cells were rinsed once with PBS and fixed with 4% formaldehyde for 10 min. The cells were subsequently permeabilized with 0.25% Triton X-100 in PBS and incubated with 3% BSA for 30 min to block non-specific antibody binding. Each of the 4 sets of identically treated cells were then incubated with rabbit antibodies against phosphorylated CREB (Ser133), Hsp27 (Ser82), or pERK (T202/Y204) (Cell Signaling Technology, Inc.). Control wells were incubated with bovine serum albumin (BSA) in PBS. The cells were rinsed with PBS and incubated with Alexa488 conjugated goat anti-rabbit secondary antibody (Molecular Probes). Cell nuclei were stained with Hoechst33342 (Molecular Probes).
(§3) Images were acquired using Discovery-1 High Content Imaging System (Molecular Devices). Background fluorescence due to nonspecific binding by the secondary antibody was established with the use of cells that were incubated with BSA/PBS and without primary antibodies.
(§4) Raw images in 16-bit grayscale TIFF format were analyzed using ImageJ API/library (http://rsb.info.nih.gov/ij/, NIH, MD). First, images from the fluorescence channels (Hoechst and Alexa 488) were normalized using the ImageJ built-in rolling-ball algorithm [S. R. Sternberg, Biomedical image processing. Computer, 16(1), January 1983]. Next a threshold was established to separate the foreground from background. An iterative algorithm based on Particle Analyzer from ImageJ is applied to the thresholded Hoechst channel image (HI) to obtain the total cell count. The nuclear region of a cell (nuclear mask) is also derived from the thresholded HI. […]

[2] = test system: phospho-ERK; assay: phospho-ERK (T202/Y204) immunofluorescence high-content assay; conditions: HEK293T cells; for effect on EGF-stimulated ERK phosphorylation: drug 90 min (PD98059 20 micromolar, SB203580 25 micromolar, 17-AAG 5 microM), 100 ng/ml hEGF during last 5 min; for ERK/MAP kinase phosphorylation, agent alone: isoproterenol 2 micromolar or forskolin 1 micromolar 15 min, anisomycin 10 micrograms/ml 10 min, hEGF 100 ng/ml 5 min
Experimental: as §1, §2, §3
as §4, with “HI. The positive particle mask is generated from the thresholded Alexa 488 image (YI). To calculate the global background (gBG), a histogram was obtained from the un-thresholded Alexa signal and the pixel intensity of the lowest intensity peak was identified as gBG. The Hoechst mask and Alexa mask are overlapped to define the correlated sub-regions of the cell. All means were corrected for the corresponding gBG.” for “HI.”

[3] = test system: phospho-CREB; assay: phospho-CREB (S133) immunofluorescence high-content assay; conditions: HEK293T cells; for phosphorylation of CREB (phospho-CREB intensity), agent alone / subcellular distribution of phospho-CREB: isoproterenol 2 micromolar or forskolin 1 micromolar 15 min, anisomycin 10 micrograms/ml 10 min, relative to untreated control; for phosphorylation of CREB (phospho-CREB intensity), agent alone: hEGF 100 ng/ml 5 min
Experimental: as §1, §2, §3
as §4, with “HI. The positive particle mask is generated from the thresholded Alexa 488 image (YI). To calculate the global background (gBG), a histogram was obtained from the un-thresholded Alexa signal and the pixel intensity of the lowest intensity peak was identified as gBG. The Hoechst mask and Alexa mask are overlapped to define the correlated sub-regions of the cell. All means were corrected for the corresponding gBG.” for “HI.”

Row | ERK/MAP kinase phosphorylation, agent alone [2] | Molecule | effect on anisomycin-induced phospho-Hsp27 ([1]; SB203580 25 micromolar 90 min, 10 micrograms/ml anisomycin during last 10 min) | effect on EGF-induced Hsp27 phosphorylation [1] | effect on EGF-stimulated ERK phosphorylation [2] | phosphorylation of CREB (phospho-CREB intensity), agent alone [3] | subcellular distribution of phospho-CREB [3] | effect on EGF-induced phospho-CREB ([3]; drug 90 min (PD98059 20 micromolar), 100 ng/ml hEGF during last 5 min) | Hsp27 phosphorylation (p38 pathway), agent alone [1]
1 | – | C[S+]([O-])c1ccc(-c2nc(-c3ccc(F)cc3)c(-c3ccncc3)[nH]2)cc1 (centres unmarked) [SB203580, 4-(4-fluorophenyl)-2-(4-methylsulfinylphenyl)-5-(4-pyridyl)1H-imidazole] | completely blocked | blocked | no effect | – | – | – | –
2 | no effects | CC(C)NCC(O)c1ccc(O)c(O)c1 (centres unmarked) [isoproterenol] | – | – | – | increased | predominantly nuclear pattern | – | –
3 | – | COc1cccc(-c2cc(=O)c3ccccc3o2)c1N [PD98059] | – | no effect | significantly blocked | – | – | reduced | –
4 | strongly stimulated | EGF: epidermal growth factor; hEGF from Roche, used as pathway stimulus | – | – | – | induced | – | – | elicited p38 pathway activation
5 | – | C=CCNC1=C2C[C@@H](C)C[C@H](OC)[C@H](O)[C@@H](C)/C=C(\C)[C@H](OC(N)=O)[C@@H](OC)/C=C\C=C(/C)C(=O)NC(=CC1=O)C2=O [17-AAG, 17-allylamino-17-demethoxygeldanamycin] | – | – | effective at reducing | – | – | – | –

Row | Molecule | ERK/MAP kinase phosphorylation, agent alone [2] | effect on anisomycin-induced phospho-Hsp27 ([1]; SB203580 25 micromolar 90 min, 10 micrograms/ml anisomycin during last 10 min) | effect on EGF-induced Hsp27 phosphorylation [1] | effect on EGF-stimulated ERK phosphorylation [2] | phosphorylation of CREB (phospho-CREB intensity), agent alone [3] | subcellular distribution of phospho-CREB [3] | effect on EGF-induced phospho-CREB ([3]; drug 90 min (PD98059 20 micromolar), 100 ng/ml hEGF during last 5 min) | Hsp27 phosphorylation (p38 pathway), agent alone [1]
6 | COc1ccc(C[C@H]2NC[C@H](O)[C@H]2OC(C)=O)cc1 [anisomycin] | no effect | – | – | – | little or no effect; also recorded: no effect | little or no effect | – | induced
